According to ChEMBL document CHEMBL1154188, “Kinase inhibitor data modeling and de novo inhibitor design with fragment approaches” (J Med Chem, 2009):

Legend:
[1] = target: T1, Serine/threonine-protein kinase Chk2 (Homo sapiens, UniProt O96017); assay: Inhibition of recombinant CHK2 at 20 uM by [gamma-33P]ATP based assay
[2] = target: Receptor-type tyrosine-protein kinase FLT3 (Homo sapiens) (UniProt P36888); assay: Inhibition of recombinant FLT3 at 20 uM by [gamma-33P]ATP based assay
[3] = target: Rho-associated protein kinase 2 (Homo sapiens) (UniProt O75116); assay: Inhibition of recombinant ROCK2 at 20 uM by [gamma-33P]ATP based assay
[4] = target: Tyrosine-protein kinase ABL1 (Homo sapiens) (UniProt P00519); assay: Inhibition of recombinant ABL1 at 20 uM by [gamma-33P]ATP based assay
[5] = target: T2, Hepatocyte growth factor receptor (Homo sapiens, UniProt P08581); assay: Inhibition of recombinant MET at 20 uM by [gamma-33P]ATP based assay
[6] = target: T2, Hepatocyte growth factor receptor; assay: Inhibition of recombinant MET by [gamma-33P]ATP based assay
[7] = target: T1, Serine/threonine-protein kinase Chk2; assay: Inhibition of recombinant CHK2 by [gamma-33P]ATP based assay
[8] = target: Ribosomal protein S6 kinase beta-1 (Homo sapiens) (UniProt P23443); assay: Inhibition of recombinant P70S6K at 20 uM by [gamma-33P]ATP based assay
Chain of Ribosomal protein S6 kinase beta-1 (Homo sapiens) (P23443 whole entry, looked up): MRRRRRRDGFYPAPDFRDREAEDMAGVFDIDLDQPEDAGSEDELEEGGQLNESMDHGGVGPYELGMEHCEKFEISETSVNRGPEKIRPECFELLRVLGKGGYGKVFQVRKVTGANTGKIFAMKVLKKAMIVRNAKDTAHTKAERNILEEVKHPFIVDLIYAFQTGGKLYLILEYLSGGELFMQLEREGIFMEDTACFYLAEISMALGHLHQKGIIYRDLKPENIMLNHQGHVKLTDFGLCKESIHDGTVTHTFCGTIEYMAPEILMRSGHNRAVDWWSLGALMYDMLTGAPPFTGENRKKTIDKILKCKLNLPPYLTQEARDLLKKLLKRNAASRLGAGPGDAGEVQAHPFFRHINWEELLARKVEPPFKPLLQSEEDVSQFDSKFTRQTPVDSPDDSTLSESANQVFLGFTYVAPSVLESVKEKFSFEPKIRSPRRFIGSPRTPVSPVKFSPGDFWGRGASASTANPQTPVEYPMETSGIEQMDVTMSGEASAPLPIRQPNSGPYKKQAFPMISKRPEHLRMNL

Chain of Receptor-type tyrosine-protein kinase FLT3 (Homo sapiens) (P36888 whole entry): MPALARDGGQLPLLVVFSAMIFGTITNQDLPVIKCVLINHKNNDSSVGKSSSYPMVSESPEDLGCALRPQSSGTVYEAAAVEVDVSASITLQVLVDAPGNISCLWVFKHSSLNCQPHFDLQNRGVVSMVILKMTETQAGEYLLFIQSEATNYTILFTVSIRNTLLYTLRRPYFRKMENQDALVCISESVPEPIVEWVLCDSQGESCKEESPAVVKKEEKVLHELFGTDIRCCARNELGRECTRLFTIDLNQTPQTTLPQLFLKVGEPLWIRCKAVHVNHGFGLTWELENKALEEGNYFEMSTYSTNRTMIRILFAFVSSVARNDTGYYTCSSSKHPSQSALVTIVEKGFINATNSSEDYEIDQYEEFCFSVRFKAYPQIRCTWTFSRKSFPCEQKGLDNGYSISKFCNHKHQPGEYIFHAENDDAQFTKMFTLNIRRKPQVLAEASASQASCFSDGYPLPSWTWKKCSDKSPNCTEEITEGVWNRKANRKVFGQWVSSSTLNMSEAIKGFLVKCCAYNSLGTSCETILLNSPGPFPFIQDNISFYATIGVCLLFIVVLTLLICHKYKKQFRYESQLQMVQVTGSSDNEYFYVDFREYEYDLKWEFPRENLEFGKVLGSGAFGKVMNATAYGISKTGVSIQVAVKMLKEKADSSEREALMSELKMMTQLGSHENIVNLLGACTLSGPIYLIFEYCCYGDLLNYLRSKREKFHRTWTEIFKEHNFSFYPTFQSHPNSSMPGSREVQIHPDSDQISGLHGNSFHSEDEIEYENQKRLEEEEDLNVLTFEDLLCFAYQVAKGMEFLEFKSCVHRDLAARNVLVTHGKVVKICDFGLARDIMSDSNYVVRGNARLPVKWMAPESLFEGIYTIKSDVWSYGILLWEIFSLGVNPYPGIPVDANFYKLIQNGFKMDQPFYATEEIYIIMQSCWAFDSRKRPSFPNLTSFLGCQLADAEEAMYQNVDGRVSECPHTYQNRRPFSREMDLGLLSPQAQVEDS
T2 sequence (P08581 whole entry): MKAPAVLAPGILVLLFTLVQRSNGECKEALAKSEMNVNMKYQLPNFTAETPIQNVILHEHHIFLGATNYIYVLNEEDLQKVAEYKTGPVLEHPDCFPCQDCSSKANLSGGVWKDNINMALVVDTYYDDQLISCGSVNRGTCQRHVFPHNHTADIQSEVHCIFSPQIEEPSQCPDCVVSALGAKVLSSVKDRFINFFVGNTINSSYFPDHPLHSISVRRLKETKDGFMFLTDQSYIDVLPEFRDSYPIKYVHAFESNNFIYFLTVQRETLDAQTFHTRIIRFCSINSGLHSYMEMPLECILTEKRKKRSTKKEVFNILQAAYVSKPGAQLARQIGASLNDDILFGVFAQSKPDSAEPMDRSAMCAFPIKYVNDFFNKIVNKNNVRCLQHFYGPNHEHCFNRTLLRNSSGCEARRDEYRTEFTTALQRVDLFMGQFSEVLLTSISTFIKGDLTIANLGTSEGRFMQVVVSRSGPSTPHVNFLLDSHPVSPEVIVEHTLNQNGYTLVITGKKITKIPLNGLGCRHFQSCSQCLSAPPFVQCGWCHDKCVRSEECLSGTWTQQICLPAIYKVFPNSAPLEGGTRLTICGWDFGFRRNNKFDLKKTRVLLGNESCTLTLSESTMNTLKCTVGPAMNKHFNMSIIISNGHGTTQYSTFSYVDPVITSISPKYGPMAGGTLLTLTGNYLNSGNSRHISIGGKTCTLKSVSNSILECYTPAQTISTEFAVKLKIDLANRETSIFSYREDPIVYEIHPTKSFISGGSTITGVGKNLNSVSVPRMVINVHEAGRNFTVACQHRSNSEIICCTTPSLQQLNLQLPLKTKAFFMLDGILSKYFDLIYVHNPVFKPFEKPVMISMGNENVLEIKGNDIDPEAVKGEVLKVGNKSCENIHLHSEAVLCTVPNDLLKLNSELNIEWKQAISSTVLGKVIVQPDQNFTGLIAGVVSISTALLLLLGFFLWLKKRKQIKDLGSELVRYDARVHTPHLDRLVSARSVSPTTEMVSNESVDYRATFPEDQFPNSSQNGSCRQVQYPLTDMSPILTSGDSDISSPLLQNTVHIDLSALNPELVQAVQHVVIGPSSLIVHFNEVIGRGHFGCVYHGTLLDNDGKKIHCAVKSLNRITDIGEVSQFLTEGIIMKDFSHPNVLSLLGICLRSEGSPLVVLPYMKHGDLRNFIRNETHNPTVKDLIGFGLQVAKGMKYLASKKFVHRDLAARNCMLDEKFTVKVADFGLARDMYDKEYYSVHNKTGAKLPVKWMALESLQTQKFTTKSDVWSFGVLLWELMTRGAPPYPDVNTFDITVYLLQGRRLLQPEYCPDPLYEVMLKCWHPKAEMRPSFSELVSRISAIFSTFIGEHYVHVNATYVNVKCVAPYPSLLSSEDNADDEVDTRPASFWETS
Chain of Rho-associated protein kinase 2 (Homo sapiens) (O75116 whole entry, looked up): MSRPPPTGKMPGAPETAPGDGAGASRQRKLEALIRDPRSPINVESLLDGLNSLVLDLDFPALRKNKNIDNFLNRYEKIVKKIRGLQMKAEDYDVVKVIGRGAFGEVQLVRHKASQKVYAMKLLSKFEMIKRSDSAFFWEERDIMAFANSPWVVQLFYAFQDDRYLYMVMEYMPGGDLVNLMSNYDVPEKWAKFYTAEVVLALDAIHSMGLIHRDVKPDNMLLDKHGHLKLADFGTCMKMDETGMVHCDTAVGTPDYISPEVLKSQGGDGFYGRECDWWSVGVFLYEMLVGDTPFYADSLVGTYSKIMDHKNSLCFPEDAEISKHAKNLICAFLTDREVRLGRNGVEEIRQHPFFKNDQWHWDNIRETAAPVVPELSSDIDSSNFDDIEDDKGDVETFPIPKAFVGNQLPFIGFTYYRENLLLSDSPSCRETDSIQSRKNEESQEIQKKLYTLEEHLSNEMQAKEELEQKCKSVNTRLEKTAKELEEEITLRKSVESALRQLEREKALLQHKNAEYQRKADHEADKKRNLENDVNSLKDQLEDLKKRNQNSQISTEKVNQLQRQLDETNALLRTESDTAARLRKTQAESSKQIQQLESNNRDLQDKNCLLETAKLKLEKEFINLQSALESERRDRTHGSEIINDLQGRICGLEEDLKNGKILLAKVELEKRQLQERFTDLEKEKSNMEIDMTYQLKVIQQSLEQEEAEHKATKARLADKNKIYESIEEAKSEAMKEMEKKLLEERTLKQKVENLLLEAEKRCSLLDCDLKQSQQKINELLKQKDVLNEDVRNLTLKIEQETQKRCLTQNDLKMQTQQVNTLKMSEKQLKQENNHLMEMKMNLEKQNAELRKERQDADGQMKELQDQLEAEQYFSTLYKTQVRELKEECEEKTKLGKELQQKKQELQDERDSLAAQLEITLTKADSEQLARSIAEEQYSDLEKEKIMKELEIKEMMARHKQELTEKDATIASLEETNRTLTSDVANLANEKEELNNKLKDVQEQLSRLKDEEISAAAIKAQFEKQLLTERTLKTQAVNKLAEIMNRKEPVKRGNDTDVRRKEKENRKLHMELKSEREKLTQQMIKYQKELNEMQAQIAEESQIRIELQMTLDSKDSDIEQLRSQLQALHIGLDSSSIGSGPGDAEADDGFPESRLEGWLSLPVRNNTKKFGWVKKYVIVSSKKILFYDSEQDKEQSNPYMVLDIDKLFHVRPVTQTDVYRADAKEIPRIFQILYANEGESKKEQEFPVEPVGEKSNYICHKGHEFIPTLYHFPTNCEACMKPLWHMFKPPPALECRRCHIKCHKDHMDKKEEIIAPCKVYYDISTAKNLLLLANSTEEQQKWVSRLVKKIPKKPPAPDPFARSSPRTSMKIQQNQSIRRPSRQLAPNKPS
T1 sequence (O96017 whole entry): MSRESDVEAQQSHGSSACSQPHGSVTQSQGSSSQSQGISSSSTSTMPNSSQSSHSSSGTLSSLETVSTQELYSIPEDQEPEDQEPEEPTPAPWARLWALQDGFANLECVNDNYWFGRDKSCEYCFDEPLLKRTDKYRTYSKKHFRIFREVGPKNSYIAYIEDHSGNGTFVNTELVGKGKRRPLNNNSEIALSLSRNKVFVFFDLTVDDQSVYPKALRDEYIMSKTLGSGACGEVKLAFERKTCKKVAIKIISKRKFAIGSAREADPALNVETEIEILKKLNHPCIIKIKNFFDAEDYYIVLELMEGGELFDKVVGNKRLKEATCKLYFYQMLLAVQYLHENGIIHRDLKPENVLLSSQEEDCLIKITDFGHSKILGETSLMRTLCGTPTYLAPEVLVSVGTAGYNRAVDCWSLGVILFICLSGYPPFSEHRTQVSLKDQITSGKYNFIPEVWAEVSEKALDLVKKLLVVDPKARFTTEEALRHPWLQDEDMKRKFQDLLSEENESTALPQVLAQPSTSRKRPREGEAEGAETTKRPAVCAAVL

Nc1ncc(-c2ccc(C(=O)NCC3CCCN3)cc2)nc1Oc1ccc2cc[nH]c2c1 (stereo unspecified)
inhibition [1]: 98% | inhibition [2]: 100% | inhibition [3]: 97% | inhibition [4]: 87% | inhibition [5]: 77% | IC50 [6]: 4.27 µM | IC50 [7]: 0.96 µM | inhibition [8]: 86%

Nc1ncc(-c2ccc(C(=O)NCC3CCNC3)cc2)nc1Oc1ccc2cc[nH]c2c1 (stereo unspecified)
inhibition [1]: 98% | inhibition [2]: 93% | inhibition [3]: 98% | inhibition [4]: 87% | inhibition [5]: 75% | IC50 [6]: 3.55 µM | IC50 [7]: 0.58 µM | inhibition [8]: 89%

CC(Oc1nc(-c2ccc(C(=O)NCC3CCCNC3)cc2)cnc1N)c1c(Cl)cccc1Cl (stereo unspecified)
inhibition [1]: 60% | inhibition [2]: 61% | inhibition [3]: 42% | inhibition [4]: 11% | inhibition [5]: 53% | IC50 [6]: 1.21 µM | IC50 [7]: 1.13 µM | inhibition [8]: 45%

Nc1ncc(-c2ccc(C(=O)NCC3CCCNC3)cc2)nc1Oc1ccc2cc[nH]c2c1 (stereo unspecified)
inhibition [1]: 98% | inhibition [2]: 99% | inhibition [3]: 98% | inhibition [4]: 81% | inhibition [5]: 65% | IC50 [6]: 7.09 µM | IC50 [7]: 0.89 µM | inhibition [8]: 101%

Nc1ncc(-c2ccc(C(=O)N[C@@H]3CCNC3)cc2)nc1Oc1ccc2cc[nH]c2c1
inhibition [1]: 96% | inhibition [2]: 86% | inhibition [3]: 37% | inhibition [4]: 84% | inhibition [5]: 65% | IC50 [6]: 13.7 µM | IC50 [7]: 0.61 µM | inhibition [8]: 100%

Nc1ncc(-c2ccc(C(=O)NC3CCNCC3)cc2)nc1Oc1ccc2cc[nH]c2c1
inhibition [1]: 98% | inhibition [2]: 102% | inhibition [3]: 99% | inhibition [4]: 85% | inhibition [5]: 73% | IC50 [6]: 5.52 µM | IC50 [7]: 0.8 µM | inhibition [8]: 98%

Nc1ncc(-c2ccc(C(=O)NCC3CCNCC3)cc2)nc1Oc1ccc2cc[nH]c2c1
inhibition [1]: 97% | inhibition [2]: 94% | inhibition [3]: 98% | inhibition [4]: 94% | inhibition [5]: 96% | IC50 [6]: 3.33 µM | IC50 [7]: 1.12 µM | inhibition [8]: 92%
